Measured values published in patent US20210155611A1, “THE SALTS OF A COMPOUND AND THE CRYSTALLINE FORMS THEREOF” (Flutchison Medipharma Limited, priority 2017, published 2021).
Values after ≈ are worked out from the molar mass of the structure shown. “Also recorded” adds a separate entry of the source.

Columns and labels:
Type in all cases: physicochemical
[1] = Hygroscopicity of Form I
Protocol: Determination method: the test sample of Form I was weighed and placed on a culture dish, which was uncovered and placed in a sealed clean container with the relative humidity of 92.5%. Then the container was placed at room temperature for 10 days. Then sampled, weighed the sample after placed for 10 days, and compared with the weight of the sample before the test. Thereby the percentage of weight gain by hygroscopicity of the sample was calculated. The crystalline form was also investigated (using X-ray powder diffraction analysis).

[2] = Solubility test of Form I and free base in different dissolution media; settings: for solubility at 24 h: thermodynamic from solid, saturated for 24 hours
Protocol: Determination method: excess amount of Form I sample of compound of Formula A and its free base (compound 4-ethyl-N-(4-((3-ethynylphenyl)amino)-7-methoxyquinazolin-6-yl) piperazine-1-carboxamide) were suspended in different dissolution media respectively, and saturated for 24 hours under shaking at constant temperature, then filtered. The filtrates were used for determining solubility of the samples. The buffers of different pH, simulated gastric fluid, and simulated intestinal fluid were prepared according to the US pharmacopeia (USP40-NF35).

[3] = Stability of Form I under high temperature, high humidity and illumination conditions; settings: for Purity A %: HPLC
Protocol: Determination method: the test sample of Form I of compound of Formula A was placed on a culture dish, which was uncovered and placed in sealed clean containers. The containers were placed under a temperature of 60° C. and an illumination of 4500 lx±500 lx respectively for 10 days; or the containers were placed under a temperature of 25° C. and a relative humidity of 92.5%%±5% and under a temperature of 40° C. and a relative humidity of 75%±5% respectively for 2 weeks.
Then sampled and investigated for the purity (using HPLC analysis) and crystalline form (using X-ray powder diffraction analysis) of the sample.

[4] = aqueous buffer, pH 1.2 buffer, 25° C.
[5] = aqueous buffer, pH 2.1 buffer, 25° C.
[6] = aqueous buffer, pH 4.5 buffer, 25° C.
[7] = aqueous buffer, pH 6.8 buffer, 25° C.
[8] = aqueous buffer, pH 7.4 buffer, 25° C.
[9] = fassgf or other biorelevant, Simulated intestinal fluid (SIF), 20° C.
[10] = Simulated gastric fluid (SGF), 20° C.

Row | Crystal form after 10 days ([1]; 92.5% RH, 25° C., 10 days, X-ray powder diffraction) | Weight gain after 10 days (%) ([1]; 92.5% RH, 25° C., 10 days, succinate) | Hygroscopicity, conclusion in words ([1]; high humidity condition for 10 days) | solubility at 24 h [2, 4] [µg/mL] | solubility at 24 h [2, 5] [µg/mL] | solubility at 24 h [2, 6] [µg/mL] | solubility at 24 h [2, 7] [µg/mL] | solubility at 24 h [2, 8] [µg/mL] | solubility at 24 h ([2]; aqueous buffer, pH 8.0 buffer, 25° C.) [µg/mL] | solubility at 24 h [2, 9] [µg/mL] | solubility at 24 h ([2]; Distilled water, 20° C.) [µg/mL] | solubility at 24 h [2, 10] [µg/mL] | Purity A % ([3]; 0 day (Table 1)) [%] | Purity A % ([3]; 0 day (Table 2)) [%] | Purity A % ([3]; 60° C., 10 days) [%] | Purity A % ([3]; 75 ± 5% RH/40° C., 2 weeks) [%] | Purity A % ([3]; 92.5 ± 5% RH/25° C., 2 weeks) [%] | Purity A % ([3]; 4500 lx ± 500 lx, 10 days) [%] | Stability (chemical purity and crystalline form), conclusion in words ([3]; high temperature and illumination 10 days, high humidity 2 weeks) | SMILES | Solubility compared with that of the free base, in words ([2]; data of Table 4, succinate)
1 | not changed | 0.01 | non-hygroscopic | 103000 | 15500 | 10000 | 253 | 46.1 | 0.5 | 253 | 803 | 103000 | 99.37 | 98.98 | 98.68 | 99.08 | 98.98 | 99.29 | stable | C#Cc1cccc(Nc2ncnc3cc(OC)c(NC(=O)N4CCN(CC)CC4)cc23)c1.O=C(O)CCC(=O)O [Form I, 4-ethyl-N-(4-((3-ethynylphenyl)amino)-7-methoxyquinazolin-6-yl)piperazine-1-carboxamide succinate] | 
2 |  |  |  |  |  |  |  |  |  |  |  |  |  |  |  |  |  |  |  | C#Cc1cccc(Nc2ncnc3cc(OC)c(NC(=O)N4CCN(CC)CC4)cc23)c1.O=C(O)CCC(=O)O [compound of Formula A, 4-ethyl-N-(4-((3-ethynylphenyl)amino)-7-methoxyquinazolin-6-yl)piperazine-1-carboxamide succinate] | significantly increased; also recorded: significantly higher
3 |  |  |  | 38500 (≈ 89400 µM) | 5450 (≈ 12700 µM) | 5.21 (≈ 12.1 µM) | 0.84 (≈ 1.95 µM) | 0.41 (≈ 0.952 µM) |  | 0.84 (≈ 1.95 µM) | 1 (≈ 2.32 µM) | 38500 (≈ 89400 µM) |  |  |  |  |  |  |  | C#Cc1cccc(Nc2ncnc3cc(OC)c(NC(=O)N4CCN(CC)CC4)cc23)c1 [free base, 4-ethyl-N-(4-((3-ethynylphenyl)amino)-7-methoxyquinazolin-6-yl)piperazine-1-carboxamide] | 
